# “And” between values parts separate entries of the source, which are not always exact repeats. Equal entries are not always repeated. Where two headings read alike, the source gives them in different places.
# What was measured:
# [1] = tested on: Staphylococcus aureus (BAA-1717); assay: Checkerboard combination / MIC assay with S. aureus BAA-1717 (MRSA); type: cell-based; details: for MIC: Staphylococcus aureus, ATCC BAA-1717 / BAA-1717, read-out: MIC of antibiotic alone
# Description: (§1) Colonies were suspended in PBS. The absorbance of each suspension was measured with a spectrophotometer, and then the suspension was adjusted to 1×10^6 CFU/mL. The testing inoculum was prepared within 20 minutes before adding to wells of the test plate. Final cellular density in the checkerboard assays was 5×10^5 CFU/mL.
# (§2) The combination effect of antibacterial substances administered together was evaluated by an in vitro checkerboard combination method with Staphylococcus aureus (ATCC 29213) and Staphylococcus aureus (BAA-1717). Ramizol and Chlopam were tested alone in 11 points by two-fold serial titration and in combination with different commercial antibiotics which were tested in a 7-point titration alone and in combination with Ramizol and Chlopam using the checkerboard technique as recommended by the Clinical & Laboratory Standards Institute (CLSI. Methods for Dilution In Antimicrobial Susceptibility Tests for Bacteria That Grow Aerobically; Approved Standard-Eighth Edition. CLSI document M07-A8 (ISBN 1-56238-689-1). Vol. 29 No. 2. Clinical and Laboratory Standards Institute, USA, 2009). The commercial antibiotics were also tested alone. Twenty-four checkerboard tests were performed.
# (§3) The starting concentration of Ramizol, Chlopam, and the commercial antibiotics was four fold of the MIC. The testing range for each combination was described in the following summary tables.
# (§4) Compound dilutions of Ramizol and Chlopam were performed in 100% DMSO and the final DMSO concentration in all test wells was 2%. Growth control wells also included 2% DMSO. CLSI protocol was followed for medium, inoculum preparation, and endpoint reading. The commercial antibiotics were dissolved and diluted in the CLSI specified diluent. The final inoculum count for each strain was 5×10^5 CFU/mL.
# Each test substance was dissolved and diluted in 100% DMSO or specified solvent. Each test substance dilution (2 μL) was added to 96 μL broth CAMHB. CAMHB seeded with S. aureus BAA-1717 at 1×10^6 CFU/mL (100 μL) was then added to the plate to generate a final cell count at 5×10^5 CFU/mL.
# (§5) Assay plates were incubated and MIC endpoints were read as described in the MIC assay. FIC (Fraction Inhibitory Concentration) and FIC Index (FICI) values for each test condition and the average of FICI values of all pairwise combinations were calculated to determine if synergy or antagonism existed between the two substances. The FIC index was determined by calculating the sum of the ratios of MICs for both substances. Arithmetically, the FIC Index of a combination of Substance 1 and Substance 2 was defined as following: FICI=Σ[FIC(Substance 1)+FIC(Substance 2)]=[(MIC of Substance 1 in combination/MIC of Substance 1 alone)+(MIC of Substance 2 in combination/MIC of Substance 2 alone)]. Synergy is defined as the FICI (Σ)≤0.5; additivity as FICI (Σ)>0.5 to ≤1; indifference as FICI (Σ)>1 to ≤4; antagonism is defined as the FICI (Σ)>4 (Zinner and Blaser, J. Journal of Antimicrobial Chemotherapy (1986), 17, 1-5; Amin, et al BMC Complementary & Alternative Medicine (2015), 15, 59; Zuo, et al. Molecules (2011), 16, 9819-9826).
# [2] = tested on: Staphylococcus aureus (ATCC 29213); assay: Checkerboard combination / MIC assay with S. aureus ATCC 29213; type: cell-based; details: S. aureus ATCC 29213; for MIC: Staphylococcus aureus, read-out: MIC of antibiotic alone
# Description: as §1, §2, §3, §4
# Cefepime, Daptomycin, Linezolid, Mupirocin, Oxacillin and Vancomycin were also tested alone. Each test substance was dissolved and diluted in 100% DMSO or specified solvent. Each test substance dilution (2 μL) was added to 96 μL broth CAMHB. CAMHB seeded with S. aureus ATCC 29213 at 1×10^6 CFU/mL (100 μL) was then added to the plate to generate a final cell count at 5×10^5 CFU/mL.
# as §5
# [3] = ATCC29213, Table 4, checkerboard series with Chlopam
# [4] = ATCC29213, Table 7, checkerboard series with Ramizol
structure (smiles),measurement,setting,value
"O=C(O)Cc1ccc(/C=C/c2cc(/C=C/c3ccc(CC(=O)O)cc3)cc(/C=C/c3ccc(CC(=O)O)cc3)c2)cc1 [Chlopam, 2,2′,2″-{[(1E,1′E,1″E)-benzene-1,3,5-triyltris(ethene-2,1-diyl)]tris(benzene-4,1-diyl)}triacetic acid]",MIC,"[1]; Table 4, checkerboard series with Chlopam, S. aureus ATCC BAA-1717",1 µg/mL
same,MIC,[2]; [3],0.5 µg/mL
"O=C(O)c1ccc(/C=C/c2cc(/C=C/c3ccc(C(=O)O)cc3)cc(/C=C/c3ccc(C(=O)O)cc3)c2)cc1 [Ramizol, 1,3,5-Tris[(1E)-2′-(4″-benzoic acid)vinyl]benzene]",MIC,"[1]; Table 7, checkerboard series with Ramizol, S. aureus ATCC BAA-1717",4 µg/mL
same,MIC,[2]; [4],4 µg/mL
Cc1onc(-c2ccccc2)c1C(=O)N[C@@H]1C(=O)N2[C@@H]1SC(C)(C)[C@@H]2C(=O)O [Oxacillin],FICI of combination with Chlopam,"[1]; Chlopam 0.001953 μg/mL + labelled antibiotic at MIC of same cell, S. aureus ATCC BAA-1717",1.0
same,FICI of combination with Chlopam,"[1]; Chlopam 0.003906 μg/mL + labelled antibiotic at MIC of same cell, S. aureus ATCC BAA-1717",1.0
same,FICI of combination with Chlopam,"[1]; Chlopam 0.0078125 μg/mL + labelled antibiotic at MIC of same cell, S. aureus ATCC BAA-1717",1.0
same,FICI of combination with Ramizol,"[1]; Ramizol 0.015625 μg/mL + labelled antibiotic at MIC of same cell, S. aureus ATCC BAA-1717",1.0
same,FICI of combination with Ramizol,"[1]; Ramizol 0.03125 μg/mL + labelled antibiotic at MIC of same cell, S. aureus ATCC BAA-1717",1.0
same,FICI of combination with Ramizol,"[1]; Ramizol 0.0625 μg/mL + labelled antibiotic at MIC of same cell, S. aureus ATCC BAA-1717",1.0
same,mean FICI of combination with Chlopam,"[1]; labelled antibiotic + Chlopam, mean of all pairwise combinations, S. aureus ATCC BAA-1717",1.2
same,Effect of the combinations with Ramizol (by mean FICI),"[1]; labelled antibiotic + Ramizol, S. aureus BAA-1717",additive effect
same,mean FICI of combination with Ramizol,"[1]; labelled antibiotic + Ramizol, mean of all pairwise combinations, S. aureus ATCC BAA-1717",0.9
same,FICI of combination with Chlopam,[2]; Chlopam 0.003906 μg/mL + labelled antibiotic at MIC of same cell,1.0
same,MIC of antibiotic in combination with Chlopam,[2]; Chlopam 0.003906 μg/mL,0.5 µg/mL
same,FICI of combination with Chlopam,[2]; Chlopam 0.0078125 μg/mL + labelled antibiotic at MIC of same cell,1.0
same,MIC of antibiotic in combination with Chlopam,[2]; Chlopam 0.0078125 μg/mL,0.5 µg/mL
same,FICI of combination with Chlopam,[2]; Chlopam 0.015625 μg/mL + labelled antibiotic at MIC of same cell,1.0
same,MIC of antibiotic in combination with Chlopam,[2]; Chlopam 0.015625 μg/mL,0.5 µg/mL
same,FICI of combination with Chlopam,[2]; Chlopam 0.125 μg/mL + labelled antibiotic at MIC of same line,0.5 and 0.8
same,MIC of antibiotic in combination with Chlopam,[2]; Chlopam 0.125 μg/mL,0.125 µg/mL and 0.25 µg/mL
same,FICI of combination with Chlopam,[2]; Chlopam 0.25 μg/mL + labelled antibiotic at MIC of same cell,0.8
same,MIC of antibiotic in combination with Chlopam,[2]; Chlopam 0.25 μg/mL,0.125 µg/mL
same,FICI of combination with Chlopam,[2]; Chlopam 0.5 μg/mL + labelled antibiotic at MIC of same cell,1.0
same,MIC of antibiotic in combination with Chlopam,[2]; Chlopam 0.5 μg/mL,0.01563 µg/mL
same,Effect of individual antibiotic combinations of lower concentrations,[2]; Chlopam and Oxacillin: 0.0125 and 0.125 μg/mL,synergistic effect
same,FICI of combination with Ramizol,[2]; Ramizol 0.015625 μg/mL + labelled antibiotic at MIC of same cell,1.0
same,MIC of antibiotic in combination with Ramizol,[2]; Ramizol 0.015625 μg/mL,0.5 µg/mL
same,FICI of combination with Ramizol,[2]; Ramizol 0.03125 μg/mL + labelled antibiotic at MIC of same cell,1.0
same,MIC of antibiotic in combination with Ramizol,[2]; Ramizol 0.03125 μg/mL,0.5 µg/mL
same,FICI of combination with Ramizol,[2]; Ramizol 0.0625 μg/mL + labelled antibiotic at MIC of same cell,1.0
same,MIC of antibiotic in combination with Ramizol,[2]; Ramizol 0.0625 μg/mL,0.5 µg/mL
same,FICI of combination with Ramizol,[2]; Ramizol 0.125 μg/mL + labelled antibiotic at MIC of same cell,1.0
same,MIC of antibiotic in combination with Ramizol,[2]; Ramizol 0.125 μg/mL,0.5 µg/mL
same,FICI of combination with Ramizol,[2]; Ramizol 4 μg/mL + labelled antibiotic at MIC of same cell,1.0
same,MIC of antibiotic in combination with Ramizol,[2]; Ramizol 4 μg/mL,0.016 µg/mL
same,MIC,[2]; [3],0.5 µg/mL
same,MIC,[2]; [4],0.5 µg/mL
same,Effect of the combinations with Chlopam (by mean FICI),[2]; labelled antibiotic + Chlopam,additive effect
same,mean FICI of combination with Chlopam,"[2]; labelled antibiotic + Chlopam, mean of all pairwise combinations",1.0
same,mean FICI of combination with Ramizol,"[2]; labelled antibiotic + Ramizol, mean of all pairwise combinations",1.2
